Here are results for eleven molecules from US10716795B2, “Steroid analogues for neuroprotection” (Emory University, priority 2008, dated 2020).

One may read the solubility as the concentration that dissolves in the medium under given conditions. Lower therefore signals little dissolved substance.

≈ marks a conversion by molar mass, not a printed value. Where a name gives a salt, the structure may show the parent alone.

Series [1] concerns Primary cortical cells. In words: MTT assay of glutamate toxicity in primary cortical cells. The format is cell-based. The following applies: for reduction in cell death at 5 μM: 5 μM compound, glutamate 0.5 μM 24 h; for reduction in cell death best concentration: 24 h pre-treatment, then glutamate 0.5 μM 24 h, at the best concentration; for best concentration (for reduction in cell death): tested 0.1-80 μM, glutamate 0.5 μM; for cell survival / reduction in cell death (in words): glutamate toxicity, cortical neurons. As for the experimental part: Primary cortical cells were seeded in multi-well plates and cultured for 8 days. […] Cells were next exposed to glutamate (0.5 μM) for the following 24 h. Cytotoxicity was assessed by the MTT [3-(4,5-dimethylthiazol-2-yl)-2,5-diphenyltetrazolium bromide] assay, which is based on the ability of a mitochondrial dehydrogenase enzyme from viable cells to cleave the tetrazolium rings of the pale yellow MTT. This reaction forms dark blue formazan crystals which are largely impermeable to cell membranes, thus resulting in their accumulation within healthy cells. Solubilization of the cells results in the liberation of the crystals, which are then also solubilized. The number of surviving cells is directly proportional to the level of the formazan product created.
On the technique in general: Tetrazolium dyes change colour on reduction, which living cells bring about.

A short description of series [2]: pharmacokinetic analysis in non-injury whole animal rat study (serum levels). The settings on record: IV 10 mg/kg, serum over 12 h. The method, then:
Select compounds were submitted for pharmacokinetic analysis in a non-injury whole animal rat study.
The compounds were intravenously (IV) dosed at 10 mg/kg and serum samples were taken at several time points over the course of 12 h. Serum concentration levels were determined for the analogues, as well as for their respective parent compound.

Series [3] is described as follows: physchem. As for the experimental part: Several compounds were screened for solubility (FIG. 2). Solubility testing was done in phosphate buffered saline, which is considered to be a good model system for physiological conditions. Compounds were added in small portions at room temperature with stirring until a visible endpoint of saturation was reached.
In series [4] the test system is cerebral edema. In words: cerebral edema assay in whole animal model of TBI (cortical contusion). The format is in vivo, rat. The settings on record: for efficacy in the cerebral edema assay (edema reduction) relative to PROG or group / mean % difference edema (injured vs non-injured tissue): male rats, cortical contusion; for efficacy in the cerebral edema assay (edema reduction) relative to PROG or group: two 8 mg/kg doses at 1 h and 6 h; for mean % difference edema (injured vs non-injured tissue): two 8 mg/kg doses at 1 h and 6 h post-surgery, brain tissue 24 hours post brain injury; for edema compared to subjects treated with vehicle: rat brain tissue 24 hours post brain injury. The method, then: Anesthetized male rats were first subjected to cortical contusion and were then given two 8 mg/kg doses of the test compound, the first at 1 h post-surgery and the second at 6 h. The animals were then sacrificed and tissue samples were taken from both injured and non-injured sections of the brain. Wet and dry weights were collected for each sample and cerebral edema (% water content) was determined as the difference in wet and dry weights divided by the wet weight. A “% mean difference” value could then be calculated based on the relative edema difference between injured and non-injured tissue samples for a given animal. […] The “vehicle” group were subjected to cortical injury but received only the drug carrier (22.5% 2-hydroxypropyl-β-cyclodextrine in water). All experimental treatments given by injection were made in stock solutions using 2-Hydroxypropyl-b-cyclodextrin (HBC; 45% w/v solution in H2O) as the solvent. These experimental solutions were then diluted 1:1 with sterile water for a final concentration of HBC of 22.5%.

The conditions of series [5]: PROG IP at 4 mg/kg, male rats; cited from earlier work.
For series [6] the following is noted: cited from earlier work.
Series [7] concerns glutathione reductase. In words: glutathione reductase activity following TBI. The format is in vivo. The settings on record: relative to progesterone and allopregnanolone.
In series [8] the test system is PR-mediated gene transcription. In words: PR-mediated gene transcription. The format is cell-based.
[9] abbreviates: aqueous buffer, thermodynamic from solid.

For `CC(=O)[C@H]1CC[C@H]2[C@@H]3CC[C@H]4C[C@H](O)CC[C@]4(C)[C@H]3CC[C@]12C` [ALLO, allopregnanolone, reference compound], in series [1], the “reduction in cell death at 5 μM” value was −3%, the “reduction in cell death best concentration” value amounted to 40% and the “best concentration (for reduction in cell death)” value stood at 80 µM.

Regarding `CC(=O)[C@H]1CCC2C3CCC4=C[C@@H](OC(=O)[C@@H](N)C(C)C)CC[C@]4(C)C3CC[C@@]21C` (stereo partly drawn) [Compound P1-31, 3β-L-Valine-progesterone-HC], the “in vivo stability of amino acid side chain / conversion to parent compound” value in series [2] was “cleaved almost immediately”. This molecule also returned a solubility in series [3] (setting [9]) of 3850 µg/mL (≈ 9.26 mM). Further, in series [4], the “efficacy in the cerebral edema assay (edema reduction) relative to PROG or group” value is on record as “equivalent efficacy to progesterone”, the “mean % difference edema (injured vs non-injured tissue)” value stood at 2.2% and the “edema compared to subjects treated with vehicle” value is given as “decrease in edema”.

For the molecule `CC(=O)[C@H]1CC[C@H]2[C@@H]3CCC4=C[C@@H](OC(=O)[C@@H]5CCCN5)CC[C@]4(C)[C@H]3CC[C@]12C` [Compound P1-33, 3β-L-Proline-progesterone-HCl], the “in vivo stability of amino acid side chain / conversion to parent compound” value in series [2] is listed as “cleaved almost immediately”.

As to `CC(C)[C@H](N)C(=O)O[C@@H](C)[C@H]1CCC2C3CCC4=CC(=O)CC[C@]4(C)C3CC[C@@]21C` (stereo partly drawn) [Compound P1-57, 20-S-L-Valine-progesterone HCl Salt], in series [1], the “reduction in cell death at 5 μM” value amounted to 23%, the “reduction in cell death best concentration” value was found to be 30%, the “cell survival / reduction in cell death (in words)” value (“cell survival / reduction” for short) is on record as “significant reductions in cell death” and the “best concentration (for reduction in cell death)” value amounted to 10 µM.

In the case of `CC(=O)[C@H]1CCC2C3CCC4=C/C(=N/OC(=O)[C@@H](N)Cc5c[nH]c6ccccc56)CC[C@]4(C)C3CC[C@@]21C` (stereo partly drawn) [Compound P1-79, O-L-Tryptophan-C3-oxime-progesterone HCl Salt], in series [4], the “mean % difference edema (injured vs non-injured tissue)” value is 1.9% and the “edema compared to subjects treated with vehicle” value is given as “decrease in edema”.

Consider `CC(=O)[C@H]1CCC2C3CC[C@H]4C[C@H](OC(=O)[C@@H](N)C(C)C)CC[C@]4(C)C3CC[C@@]21C` (stereo partly drawn) [Compound P1-131, 3α-L-Valine-5α-pregnan-20-one HCl Salt], for which the “in vivo stability of amino acid side chain / conversion to parent compound” value in series [2] is “stable for a prolonged period of time and only gradually converted to its parent, ALLO”. Moreover, in series [4], the “efficacy in the cerebral edema assay (edema reduction) relative to PROG or group” value is reported as “greatest edema reduction among the ALLO isomer group”.

On to `CC(=O)[C@H]1CCC2C3CC[C@@H]4C[C@H](OC(=O)[C@@H](N)C(C)C)CC[C@]4(C)C3CC[C@@]21C` (stereo partly drawn) [Compound P1-133, 3α-L-Valine-5-pregnane-20-one HCl Salt], for which the solubility in series [3] (setting [9]) was determined as 330 µg/mL.

`CC(=O)[C@H]1CC[C@H]2[C@@H]3CCC4=C/C(=N/OC(=O)[C@@H](N)C(C)C)CC[C@]4(C)[C@H]3CC[C@]12C` [Compound P1-185, 3-Valine-E-oxime-progesterone HCl] came in with a solubility in series [3] (setting [9]) of 13000 µg/mL. Also, the “efficacy in the cerebral edema assay (edema reduction) relative to PROG or group” value in series [4] was “equivalent efficacy to progesterone”. In addition, in series [1], the “reduction in cell death at 5 μM” value was 27%, the “reduction in cell death best concentration” value turned out to be 27%, the “cell survival / reduction” value was “highest levels of cell survival among the compounds screened” and the “best concentration (for reduction in cell death)” value came out at 5 µM.

For `CC(=O)[C@H]1CC[C@H]2[C@@H]3CCC4=C/C(=N\OC(=O)[C@@H](N)C(C)C)CC[C@]4(C)[C@H]3CC[C@]12C` [Compound P1-186, 3-Valine-Z-oxime-progesterone HCl], the “in vivo stability of amino acid side chain / conversion to parent compound” value in series [2] was “readily cleaved to give primarily the parent oxime P2-02”. In series [3] (phosphate buffered saline, room temperature, visible endpoint of saturation), this molecule yielded a solubility of 15200 µg/mL. The “efficacy in the cerebral edema assay (edema reduction) relative to PROG or group” value in series [4] is recorded as “average reduction in edema levels almost twice that of PROG”. Moreover, in series [1], the “reduction in cell death at 5 μM” value is on record as 34%, the “reduction in cell death best concentration” value is on record as 34%, the “cell survival / reduction” value is recorded as “highest levels of cell survival among the compounds screened” and the “best concentration (for reduction in cell death)” value was found to be 5 µM.

For `CC(=O)[C@H]1CCC2C3CCC4=CC(=O)CC[C@]4(C)C3CC[C@@]21C` (some centres unmarked) [PROG, progesterone, reference compound], in series [5], the maximum serum concentration is 28 ng/mL. Also, in series [4], the “mean % difference edema (injured vs non-injured tissue)” value was determined as 2.0% and the “edema compared to subjects treated with vehicle” value was “decrease in edema”. In addition, in series [1], the “reduction in cell death at 5 μM” value is 4%, the “reduction in cell death best concentration” value turned out to be 42% and the “best concentration (for reduction in cell death)” value was determined as 20 µM. For the same molecule, the reduction of mortality entry in series [6] (100 moderate to severe TBI patients, 3 days intravenous treatment) was “over 60%”. The functional outcomes in series [6] (30 days post-injury) is “significantly improved functional outcomes”.

On to `CC(=O)[C@@H]1CCC2C3CCC4=CC(=O)CC[C@@]4(C)C3CC[C@]21C` (stereo partly drawn) [ent-PROG, ent-Progesterone], for which, in series [7], the glutathione reductase activity entry is “significantly increased glutathione reductase activity”. The “activation of PR-mediated gene transcription” value in series [8] is listed as “does not activate”.
